# ChEMBL document CHEMBL4431372, “Optimization of a Fragment-Based Screening Hit toward Potent DOT1L Inhibitors Interacting in an Induced Binding Pocket” (ACS Med Chem Lett, 2016)
# Columns and labels:
# [1] = target: T1, Histone-lysine N-methyltransferase, H3 lysine-79 specific (Homo sapiens, UniProt Q8TEK3); experiment: Inhibition of human DOTL1 (2 to 416 residues)-mediated methylation of nucleosome preincubated for 30 mins followed by addition of S-[methyl-3H-] adenosyl-L-methionine and nucleosome measured after 180 mins by scintillation proximity assay
# [2] = target: T1, Histone-lysine N-methyltransferase, H3 lysine-79 specific; experiment: Binding affinity to biotinylated Avi tagged human DoT1L (2 to 416 residues) by SPR analysis
# T1 sequence (Q8TEK3 whole entry, the tested form may be a part): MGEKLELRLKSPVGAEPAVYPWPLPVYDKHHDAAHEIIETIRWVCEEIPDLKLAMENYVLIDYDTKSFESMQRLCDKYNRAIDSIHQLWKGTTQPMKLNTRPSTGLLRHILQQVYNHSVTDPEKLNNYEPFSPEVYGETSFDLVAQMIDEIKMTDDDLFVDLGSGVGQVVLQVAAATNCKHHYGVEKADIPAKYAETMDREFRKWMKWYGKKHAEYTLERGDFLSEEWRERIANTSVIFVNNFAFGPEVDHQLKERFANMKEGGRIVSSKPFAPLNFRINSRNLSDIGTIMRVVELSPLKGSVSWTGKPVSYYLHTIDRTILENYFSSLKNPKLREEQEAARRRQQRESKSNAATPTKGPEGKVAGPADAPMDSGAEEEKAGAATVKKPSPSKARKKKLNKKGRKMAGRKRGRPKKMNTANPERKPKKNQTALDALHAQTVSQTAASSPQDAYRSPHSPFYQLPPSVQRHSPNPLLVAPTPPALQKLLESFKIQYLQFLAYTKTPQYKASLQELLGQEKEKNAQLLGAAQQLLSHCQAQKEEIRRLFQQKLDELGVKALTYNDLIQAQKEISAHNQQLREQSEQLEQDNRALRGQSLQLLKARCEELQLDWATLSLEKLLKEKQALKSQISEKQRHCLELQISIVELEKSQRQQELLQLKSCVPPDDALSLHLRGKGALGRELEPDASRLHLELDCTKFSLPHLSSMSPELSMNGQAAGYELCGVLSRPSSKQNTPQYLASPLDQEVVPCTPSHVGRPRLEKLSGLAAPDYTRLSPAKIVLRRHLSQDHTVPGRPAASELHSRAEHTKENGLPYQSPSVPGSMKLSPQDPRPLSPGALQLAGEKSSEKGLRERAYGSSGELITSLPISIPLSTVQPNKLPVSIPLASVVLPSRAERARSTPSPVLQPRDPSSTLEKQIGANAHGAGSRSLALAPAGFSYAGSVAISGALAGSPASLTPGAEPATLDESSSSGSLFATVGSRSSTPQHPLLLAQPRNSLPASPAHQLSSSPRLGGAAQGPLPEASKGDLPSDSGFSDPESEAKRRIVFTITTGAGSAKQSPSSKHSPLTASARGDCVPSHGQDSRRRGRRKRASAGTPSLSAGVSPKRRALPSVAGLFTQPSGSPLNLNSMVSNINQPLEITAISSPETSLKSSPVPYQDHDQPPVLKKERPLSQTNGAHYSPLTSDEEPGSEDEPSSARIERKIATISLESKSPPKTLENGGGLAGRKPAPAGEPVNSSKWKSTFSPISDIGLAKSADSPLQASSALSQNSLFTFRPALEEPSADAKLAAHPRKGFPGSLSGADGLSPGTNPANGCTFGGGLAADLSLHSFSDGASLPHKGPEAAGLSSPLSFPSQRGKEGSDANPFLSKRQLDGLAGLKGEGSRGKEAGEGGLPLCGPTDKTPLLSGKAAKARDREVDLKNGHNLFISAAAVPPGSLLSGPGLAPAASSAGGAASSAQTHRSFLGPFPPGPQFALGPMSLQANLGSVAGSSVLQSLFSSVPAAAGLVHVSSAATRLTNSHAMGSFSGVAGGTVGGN
IC50 [1],Kd [2],SMILES
320 µM,50 µM,CNC(=O)c1cc(C(=O)c2c(Cl)cccc2Cl)c[nH]1
98 µM,–,CN(c1ccc2ncccc2c1)c1c(Cl)cccc1Cl
0.047 µM,–,Cc1ccc(C#CCN(c2ccc3ncnc(N)c3c2)c2c(Cl)cccc2Cl)nc1
0.84 µM,–,Cn1cnc2ccc(N(CC#Cc3cccnc3)c3c(Cl)cccc3Cl)cc2c1=O
139 µM,–,O=C(c1ccc2ncccc2c1)c1c(Cl)cccc1Cl
0.014 µM,–,Nc1ncnc2ccc(N(CC#CC(O)c3nccn3CCO)c3c(Cl)cccc3Cl)cc12 (stereo unspecified)
0.92 µM,–,C#CCN(c1ccc2ncnc(N)c2c1)c1c(Cl)cccc1Cl
0.089 µM,–,Cc1ncc(C#CCN(c2ccc3ncn(C)c(=O)c3c2)c2c(Cl)cccc2Cl)cn1
4.3 µM,–,CC(=O)Nc1cncc(-c2cc(C(=O)c3c(Cl)cccc3Cl)c[nH]2)c1

SMILES,IC50 [1],Kd [2]
COc1ccnc2ccc(N(C)c3c(Cl)cccc3Cl)cc12,39 µM,–
